Source: US7713696B2, “Genetic markers for prognosis of antifolate treatment efficacy” (Academisch Zeikenhuis Leiden H.O.D.N. Lumc, priority 2006, dated 2010)

Columns and labels:
[1] = test system: Rheumatoid arthritis (RA) patients; conditions: literature refs 7-9; cited from earlier work
recent-onset RA patients = assay: Adverse drug events during six months of methotrexate therapy, BeSt trial; assay type: in vivo, human
Protocol: Toxicity was evaluated by counting each reported adverse drug event and its consequences for the patient and treatment. Adverse drug events were spontaneously reported by the patients, or were reported as a result of non-specific questioning on patients' well-being by the investigator, by physical examination or laboratory measurements during follow up. In case of adverse drug events, methotrexate was continued at the lowest tolerated dose, or if methotrexate was not tolerated at all, the DMARD therapy was adjusted according to the protocol. Of all reported adverse drug events, the following non-infectious adverse drug events were evaluated explicitly: gastrointestinal adverse drug events defined as patients' general well-being, nausea, vomiting, diarrhea, and constipation; liver adverse drug events defined as all cases of elevated functional liver enzymes resulting in methotrexate dose adjustment or discontinuation; pneumonitis; skin and mucosal disorders. Moreover, patients were evaluated for leucopenia (<4.10^9/L), ALAT 3 times upper limit of normal (>135 U/L) and for alkaline phosphatase (AF) 3 times the upper limit of normal (>360 U/L).
For toxicity analysis, all patients who altered therapy from methotrexate before six months of follow-up were verified for adverse drug events after change of therapy and included in the analysis. The analyses of laboratory measurements were performed for completers only. The toxicity regression analysis was tested for the following confounders: weight, creatinine clearance, methotrexate dosage group (15 or 25 mg) and use of alcohol.

[2] = all patients with toxicity data (n=200)

Compound: CN(Cc1cnc2nc(N)nc(N)c2n1)c1ccc(C(=O)N[C@@H](CCC(=O)O)C(=O)O)cc1 [methotrexate]
- patients showing good clinical response [1]: about 40%
- Adverse drug events at six months, number of patients with event/patients (recent-onset RA patients; AMPD1 CC genotype): 42/146
- Adverse drug events at six months, percentage of patients (recent-onset RA patients; AMPD1 CC genotype): (29%)
- Adverse drug events at six months, number of patients with event/patients (recent-onset RA patients; AMPD1 CT genotype): 16/50
- Adverse drug events at six months, percentage of patients (recent-onset RA patients; AMPD1 CT genotype): (32%)
- Adverse drug events at six months, number of patients with event/patients (recent-onset RA patients; AMPD1 TT genotype): 1/3
- Adverse drug events at six months, percentage of patients (recent-onset RA patients; AMPD1 TT genotype): (33%)
- Adverse drug events at six months, number of patients with event/patients (recent-onset RA patients; ATIC CC genotype): 21/94
- Adverse drug events at six months, percentage of patients (recent-onset RA patients; ATIC CC genotype): (22%)
- Adverse drug events at six months, number of patients with event/patients (recent-onset RA patients; ATIC CG genotype): 33/91
- Adverse drug events at six months, percentage of patients (recent-onset RA patients; ATIC CG genotype): (36%)
- times more likely to experience any adverse drug event (recent-onset RA patients; ATIC G-allele carriers, six months, not significant after adjustment): 2 times
- Adverse drug events at six months, number of patients with event/patients (recent-onset RA patients; ATIC GG genotype): 6/15
- Adverse drug events at six months, percentage of patients (recent-onset RA patients; ATIC GG genotype): (40%)
- Adverse drug events at six months, number of patients with event/patients (recent-onset RA patients; ITPA CA genotype): 8/30
- Adverse drug events at six months, percentage of patients (recent-onset RA patients; ITPA CA genotype): (27%)
- Adverse drug events at six months, number of patients with event/patients (recent-onset RA patients; ITPA CC genotype): 51/169
- Adverse drug events at six months, percentage of patients (recent-onset RA patients; ITPA CC genotype): (30%)
- Gastrointestinal (general wellbeing, nausea, vomiting, diarrhoea, constipation), frequency at 6 months, number of patients (recent-onset RA patients; [2]): 26
- Gastrointestinal (general wellbeing, nausea, vomiting, diarrhoea, constipation), frequency at 6 months, percentage (recent-onset RA patients; [2]): (13.0%)
- Hepatic elevated liver enzymes, frequency at 6 months, number of patients (recent-onset RA patients; [2]): 16
- Hepatic elevated liver enzymes, frequency at 6 months, percentage (recent-onset RA patients; [2]): (8%)
- Overall adverse drug events, total population, frequency at 6 months, number of patients (recent-onset RA patients; [2]): 60
- Overall adverse drug events, total population, frequency at 6 months, percentage (recent-onset RA patients; [2]): (30%)
- Pneumonitis, frequency at 6 months, number of patients (recent-onset RA patients; [2]): 0
- Pneumonitis, frequency at 6 months, percentage (recent-onset RA patients; [2]): (0%)
- Skin and mucosa disorders, frequency at 6 months, number of patients (recent-onset RA patients; [2]): 17
- Skin and mucosa disorders, frequency at 6 months, percentage (recent-onset RA patients; [2]): (8.5%)
- study population that experienced at least one adverse drug event during six months of treatment (recent-onset RA patients; n=60 of 200): Thirty
- odds ratio for adverse drug events (recent-onset RA patients; non-responders carrying the ATIC G-allele compared to all ATIC G-allele carriers, 95% CI 1.1,7.5): 2.8
- odds ratio for adverse drug events (recent-onset RA patients; patients with good clinical response at six months compared to non-responders, 95% CI 0.22, 0.91): 0.45
